Here are results for one cell line from the supplement of paper PMC10307832.

Holding throughout (test): relative viability (nuclei count vs DMSO), 5 days (fraction); higher = more cells survive
Compound in the assay “Zosuquidar + Palbociclib”: O[C@@H](COc1cccc2ncccc12)CN1CCN([C@@H]2c3ccccc3[C@@H]3[C@H](c4ccccc42)C3(F)F)CC1 [Zosuquidar] + CC(=O)c1c(C)c2cnc(Nc3ccc(N4CCNCC4)cn3)nc2n(C2CCCC2)c1=O [Palbociclib] (partner 0.5 µM)
The method, boiled down: (§1)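 Nuclei were stained with Hoechst during a one-step fixation (final 0.05% Triton X-100, 1% formaldehyde, 1 ug/ml Hoechst) carried out 5 days after dosing, then counted on 4× images. The cells, lung cancer lines in 1536-well plates, had been dosed by pin tool the day after seeding with one drug alone or a fixed anchor-drug dose plus five library-drug doses (not always all listed) in √10 steps. Relative viability is the nuclei count in treated wells divided by that in vehicle wells, and each value is the median of duplicate plates.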

Compound in assay [1]: COc1cc2nccc(Oc3ccc(NC(=O)C4(C(=O)Nc5ccc(F)cc5)CC4)cc3)c2cc1OC [Cabozantinib] + N=C(N)NC(=N)NCCc1ccccc1 [Phenformin] (partner 250 µM)
A digest of the protocol: as §1

Compound in the assay “Kobe2602 + Olaparib”: C1=CC(=CC=C1NC(=S)NNC2=C(C=C(C=C2[N+](=O)[O-])C(F)(F)F)[N+](=O)[O-])F [Kobe2602] + O=C(c1cc(Cc2n[nH]c(=O)c3ccccc23)ccc1F)N1CCN(C(=O)C2CC2)CC1 [Olaparib] (partner 8 µM)
The method, boiled down:
as §1

Compound in the assay “Zosuquidar + Olaparib”: O[C@@H](COc1cccc2ncccc12)CN1CCN([C@@H]2c3ccccc3[C@@H]3[C@H](c4ccccc42)C3(F)F)CC1 [Zosuquidar] + O=C(c1cc(Cc2n[nH]c(=O)c3ccccc23)ccc1F)N1CCN(C(=O)C2CC2)CC1 [Olaparib] (partner 8 µM)
A digest of the protocol: as §1

Regarding UMC-11, the relative viability came to 0.313 with Zosuquidar + Palbociclib (first compound 0.01 µM); 0.305 with Zosuquidar + Palbociclib (first compound 0.03162 µM); 0.338 with Zosuquidar + Palbociclib (first compound 0.1 µM); 0.341 in the assay with Zosuquidar + Palbociclib (first compound 0.3162 µM); 0.296 with Zosuquidar + Palbociclib (first compound 1 µM); 0.309 in assay [1] (first compound 0.02 µM). Moreover, the relative viability in assay [1] (first compound 0.06325 µM) came to 0.35; in assay [1] (first compound 0.2 µM), 0.335; in assay [1] (first compound 0.6325 µM), 0.32; in assay [1] (first compound 2 µM), 0.331; in the assay with Kobe2602 + Olaparib (first compound 0.2 µM), 0.404; in the assay with Kobe2602 + Olaparib (first compound 0.6325 µM), 1.07. The relative viability with Kobe2602 + Olaparib (first compound 2 µM) came out at 0.384; in the assay with Kobe2602 + Olaparib (first compound 6.325 µM), 0.366; with Kobe2602 + Olaparib (first compound 20 µM) it was 1.02; with Zosuquidar + Olaparib (first compound 0.01 µM), 0.505; with Zosuquidar + Olaparib (first compound 0.03162 µM) it was 0.38; with Zosuquidar + Olaparib (first compound 0.1 µM) it was 0.413. The relative viability was 0.385 with Zosuquidar + Olaparib (first compound 0.3162 µM) and 0.34 with Zosuquidar + Olaparib (first compound 1 µM).
